Reference: a melting point compilation (Tetko et al.)

SMILES | melting point [°C]
COc1cc(-c2coc3cc(O)c(OC)c(O)c3c2=O)cc(O)c1OC | 185
O=C(O)C(O)C(O)C(OC1OC(CO)C(O)C(O)C1O)C(O)CO (configuration not stated) | 113 to 118
Cc1cc(N)ccc1N | 64
CCOC(=O)c1nc(-c2ccc(S(=O)(=O)Cl)s2)no1 | 114 to 115
CC(C)OC(C)(C)C | -88
SCCCS | -79
O=c1[nH]c2ccc(Cl)cc2o1 | 192 to 193
O=[N+]([O-])c1ccc(Br)s1 | 44
NC(=O)C1=CN(C2OC(COP(=O)(O)OP(=O)(O)OCC3OC(n4cnc5c(N)ncnc54)C(O)C3O)C(O)C2O)C=CC1 (configuration not stated) | 141
O=C(O)C1CCN(c2ncnc3ccsc23)CC1 | 248 to 249
CC(C)(C)C1CCC(O)CC1 (configuration not stated) | 66
CC1=C(C(=O)O)CCC1(C)C | 135
CCC(C)Br (configuration not stated) | -112
Cc1cc([N+](=O)[O-])ccc1C(=O)O | 154
C=CC1CNC(=S)O1 (configuration not stated) | 50
CC(C)(C)SC1(C#N)CC1(C#N)SC(C)(C)C (configuration not stated) | 104
O=C1OC(=O)c2c(I)c(I)c(I)c(I)c21 | 328
CCOCCOC(=O)CCCCCCCCC(=O)OCCOCC | -1
Nc1nc(NC2CC2)c2ncn(C3C=CC(CO)C3)c2n1 (configuration not stated) | 165
O=S(=O)(Cl)c1ccc(F)cc1 | 36.5
CC1(C)CC(O)CC(C)(C)N1 | 131
CCCCCCCCCCCCCCCCCC(C)C | 18

SMILES | melting point [°C]
CCOC(=O)Nc1nc(N)c(C(N)=O)s1 | 168 to 170
NNC(=O)c1ccc(F)cc1F | 141 to 142
NCCCNCCN | 10
Cn1[nH]c([N+](=O)[O-])c2c(=O)ccnc1-2 | 223
CCc1cccc(CC)c1NC(=O)CN(CC(=O)O)CC(=O)O | 187 to 190
O=C(O)Cc1cccnc1 | 144
O=C(Nn1cnnc1)C(F)(F)C(F)(F)C(F)(F)C(F)(F)C(F)(F)C(F)(F)C(F)(F)C(F)(F)F | 151
N#Cc1ccc(C(F)(F)F)cc1[N+](=O)[O-] | 44
CCCCCCCCCCCCCCCCCCOC(=O)CCc1cc(C(C)(C)C)c(O)c(C(C)(C)C)c1 | 52.5
COc1ccccc1N1CCN(CC(C)N(C(=O)C2CCCCC2)c2ccccn2)CC1 (configuration not stated) | 90 to 91
CC=CCCl | -65
N#Cc1ccccc1CBr | 72
NC(Cc1cc(F)ccc1F)C(=O)O (racemic) | 252 to 253
Nc1ccc(O)cc1C(=O)O | 233 to 234
O=C1NCCN1c1ncc([N+](=O)[O-])s1 | 261
CC(C)(C1CCCCC1)C1CCCCC1 | 15.6
CC(C1CC1)C(O)(Cn1cncn1)c1ccc(Cl)cc1 (configuration not stated) | 108
Cc1cc2cc3cc(C)[nH]c3cc2[nH]1 | > 170
FC(F)(F)c1cc(N=C=S)ccc1Cl | 34 to 36
O=C(NN=C1CCCCC1)C(=O)NN=C1CCCCC1 | 210
NS(=O)(=O)c1cc2c(cc1Cl)NC(C(Cl)Cl)NS2(=O)=O (configuration not stated) | 270
CC12CCCC1C1CCC3CC(Cc4ccccc4)CCC3(C)C1CC2 (configuration not stated) | 148

SMILES | melting point [°C]
NC(=O)C1CCNCC1 | 148
CCNc1nc(Cl)nc(N(CC)CC)n1 | 102
Cc1ccc(S(=O)(=O)OC2CCC3C4CCC5CC(=O)CCC5(C)C4CCC23C)cc1 (configuration not stated) | 179 to 180
O=C1C=CC(=O)c2c(O)ccc(O)c21 | 237
CC(=O)c1sccc1N | 86 to 88
Cc1cc(C=O)no1 | 31 to 33
OC1CC2CCC1C2 (configuration not stated) | 149
Oc1c(Cl)cc(F)cc1Cl | 49 to 52
Cc1cc(Cl)ccc1OCCCC(=O)O | 100
CC12CCC3c4ccc(OC5CCCC5)cc4CCC3C1CC(O)C2O (configuration not stated) | 99
CC1CS1 (configuration not stated) | -91
O=C1CCCC(Cl)(Cl)C1(O)O | 120 to 124
Cn1ncc2c(NCCN)ncnc21 | 297
CCS(=O)(=O)c1ccc(F)cc1 | 41
CSc1ccc(C#N)cc1 | 62
O=C1CCCCCCCCC1=O | 40.5
O=C(O)CSCSCC(=O)O | 125 to 128
O=C(O)C(F)F | -1
CC(C)n1nnc2cc(C(=O)Cl)ccc21 | 140 to 143
Nc1c(Br)cc(Br)c2c1C(=O)c1ccccc1C2=O | 227
OCC(CO)(CO)NCCCNC(CO)(CO)CO | 169
Clc1cc(Cl)c(Cl)c(I)c1 | 52

SMILES | melting point [°C]
CC(C)=C1CC(=C(C)C)C1=O | 87
COc1ccc(Cl)c(N)c1 | 27
CCCCCCC=CCC(=O)O | 18
COc1cc2c(cc1OC)C1(O)C(=O)c3ccc4c(c3OC1CO2)C=CC(C)(C)O4 (configuration not stated) | 198
Cc1ccc2cc3ccccc3cc2c1 | 209
Cc1cc(CO)n(C)n1 | 52 to 54
N#Cc1cc(F)c(N)cc1F | 95 to 97
CN1C(=O)C(=NNc2c(Br)cc(Br)cc2Br)C(=O)N(C)C1=O | 165
C=CC(=O)OC1CC2CCC1(C)C2(C)C (configuration not stated) | 97
CCC(=O)Nc1ccc(Cl)c(Cl)c1 | 92
CCC1(O)CC2CN(CCc3c([nH]c4ccccc34)C(C(=O)OC)(c3cc4c(cc3OC)N(C)C3C(O)(C(=O)OC)C(OC(C)=O)C5(CC)C=CCN6CCC43C65)C2)C1 (configuration not stated) | 267
CCOC(=O)CCc1ccc2c(c1)NC(=O)CC2 | 124
Nc1nc(N)nc(Cl)n1 | 320
O=[N+]([O-])OCC(CO[N+](=O)[O-])O[N+](=O)[O-] | 14
ClCC(Br)CBr (configuration not stated) | 6
COC(=O)c1c(C)n[nH]c1-c1cc(C)on1 | 168 to 170
CNc1c(C=O)c(=O)n(C)c(=O)n1C | 203
Cc1nn(C)c(Cl)c1S(=O)(=O)O | 308 to 310
CCC(C)CCC(C)O (configuration not stated) | -61

Other lines, results leading:

melting point [°C] | SMILES
181 to 182 | O=C1OC(c2ccc(Cl)cc2)=NC1=Cc1ccccc1
285 | Cc1ccc(/N=N/c2c(N)nn3c(C)cc(=O)[nH]c23)cc1
226 | Cc1cc(O)nc2ccccc12
166 | O=c1c2ccccc2cc2ccccn12
64 | S=C=Nc1ccc(OCc2ccccc2)cc1
190 to 191 | COc1ccc(/C=C/c2ccc([N+](=O)[O-])cc2[N+](=O)[O-])cc1O
171 | BrC(=Cc1ccccc1)c1ccc(Br)c2c(Br)cccc12
76 | Cc1ccc2c(ccc3ccccc32)n1
148 to 153 | CCOC(=O)[C@H](CCc1ccccc1)N[C@@H](C)C(=O)O
385 | O=C1c2ccccc2-c2ccc3c4c(ccc1c24)-c1ccccc1C3=O
71 | CCCCCCOc1ccccc1C(N)=O
120 to 122 | Nc1ccc(Oc2c(Cl)cccc2Cl)nc1
135 to 137 | Nc1ccccc1SCCS(=O)(=O)c1ccc(Cl)cc1
279 to 281 | Cc1ccnc(Nc2nc3ccccc3[nH]2)c1
75 | Cc1ccccc1C1=Cc2ccccc2C2(OCCO2)O1
200 to 201 | Cc1nc(-c2cccc(C(=O)O)c2)cs1
68 to 68.5 | CN(C)c1ccc(CCC2CCc3ccccc3N2)cc1 (configuration not stated)
120 | COc1ccccc1OCC(=O)O
283 to 285 | COC(=O)c1c(SC)nc(-c2ccccc2)[nH]c1=O
79 to 79.6 | CC(=O)/C=C1\Cc2ccccc21
192 | CC(=O)NC(=Cc1ccccc1)C(=O)O
143 to 144 | c1ccc2c(c1)CC1(OCCO1)c1ccccc1CC21OCCO1
171 to 173 | Cc1cnnc2ccc3nonc3c12
77 | CN(C)c1ccc(O)cc1

melting point [°C] | SMILES
131 to 133 | COc1nn(-c2ccccc2)cc1/C=C/C=O
139 | O=C(Cl)c1sc(-c2ccccc2)nc1-c1ccccc1
57 to 59 | CNCc1ccccc1Cn1cncn1
106 | CCCCc1ccc(C(=O)O)cc1
156 | CC1(C)OC(=O)C(=NNc2ccc(Cl)cc2)C(=O)O1
193 to 197 | NC(=S)Nc1cccc2ccccc12
123 to 124 | COc1ccc2c(CC(=O)O)coc2c1
160 to 170 | O=c1onc2cnc3ccccc3n12
48 to 57 | CCOC(=O)CCC(=O)OC(C(=O)c1ccccc1)c1ccccc1 (configuration not stated)
197 to 198 | O=C(c1ccc(O)cc1)c1ccc(O)cc1O
18 | CCOC(=O)c1ccc(Br)cc1
242 to 245 | CCOC(=O)c1cn[nH]c1NC(=O)Nc1ccccc1
176 | CC(=O)Nc1cc([N+](=O)[O-])ccc1Nc1ccc(C)cc1
115 | c1ccc(COc2ccc3cc[nH]c3c2)cc1
180 | O=C1/C(=N/Nc2ccc(Cl)cc2)C(C(F)(F)F)=NN1c1ccccc1
216 | NC(=O)N1c2ccccc2CC(=O)c2ccccc21
111 | Cc1cccc(N(C)C(=S)Oc2ccc3ccccc3c2)c1
133 | CCCc1nn(-c2ccccc2)c(=O)n1C(N)=O
234 | CC1(C)C2CCC1(C)C(N=C1C(=O)Nc3ccccc31)C2N=C1C(=O)Nc2ccccc21 (configuration not stated)
224 | Cc1nc2cc([N+](=O)[O-])ccc2[nH]1
72 to 73 | O=Cc1ccc(Oc2cccnc2)o1
20 | c1ccc2c(c1)CCCN2
54 to 58 | Cc1ccc(S(=O)(=O)CCO)cc1
